The results in this text go back to patent publication US10604554B2, “Double-acylated GLP-1 derivatives” (Novo Nordisk A/S, priority 2012, dated 2020).

By half-life is commonly meant the time needed for the level to fall by half in the phase considered. The pEC50 is −log10 of the EC50, conventionally taken in molar units. A word on the pIC50: it is the negative decadic logarithm of the IC50, by convention in mol/L.

In data set [1] the target is T1, human GLP-1 receptor (Homo sapiens, UniProt P43220).
T1 construct: expressed in transfected cells; host or cells: BHK cells, clone FCW467-12A/KZ10-1 (parent line BHKTS13), further transfected with CRE luciferase
T1 sequence (P43220 24-463): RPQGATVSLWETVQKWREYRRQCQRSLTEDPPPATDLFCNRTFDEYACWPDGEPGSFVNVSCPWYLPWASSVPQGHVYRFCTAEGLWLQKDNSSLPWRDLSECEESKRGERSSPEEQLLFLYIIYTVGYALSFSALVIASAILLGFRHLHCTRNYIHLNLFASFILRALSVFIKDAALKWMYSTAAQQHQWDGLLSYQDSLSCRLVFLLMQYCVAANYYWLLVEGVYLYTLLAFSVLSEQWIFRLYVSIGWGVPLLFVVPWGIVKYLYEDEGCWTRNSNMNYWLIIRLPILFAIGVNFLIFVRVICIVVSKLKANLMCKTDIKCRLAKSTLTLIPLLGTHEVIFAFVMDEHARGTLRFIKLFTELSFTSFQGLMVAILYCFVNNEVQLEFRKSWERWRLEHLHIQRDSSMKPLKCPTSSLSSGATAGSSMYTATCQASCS
In words: In vitro potency (CRE luciferase; whole cells). It counts as cell-based. On the set-up: EC50/pM (ratio 1% HSA/0% HSA): unit not given here. The following applies: for EC50/pM (ratio 1% HSA/0% HSA): ratio of EC50 at 1% HSA to EC50 at 0% HSA; for pEC50: BHK cells. Put shortly: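 Reporter: CRE-luciferase in BHK cells stably expressing human GLP-1R, 5×10^3 cells/well; compounds tested in buffer containing 0% or 1% HSA.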

Data set [2] can be described thus: Pharmacokinetic (PK) study in rat. The conditions noted are these: male, Sprague Dawley, in vivo, iv, 6 nmol/kg.
Protocol: The purpose of this Example is to investigate half-life in vivo in rat.
In vivo pharmacokinetic studies in rats were performed with the GLP-1 derivatives of a number of the Example compounds, as described in the following.
Male Sprague Dawley rats of same age with a body weight of approximately 400 g were obtained from Taconic (Denmark) and assigned to the treatments by simple randomisation on body weight, approximately 4 rats per group.
The GLP-1 derivatives (approximately 6 nmol/ml) were dissolved in 50 mM sodium phosphate, 145 mM sodium chloride, 0.05% tween 80, pH 7.4. Intravenous injections (1.0 ml/kg) of the compounds were given with a syringe in the tail vein of conscious rats. Blood was sampled from vena sublingualis for 5 days post dosing. Blood samples (200 μl) were collected in EDTA buffer (8 mM) and then centrifuged at 4° C. and 10000 G for 5 minutes. Plasma samples were kept at −20° C. until analyzed for plasma concentration of the respective GLP-1 compound.
The donor beads were coated with streptavidin, while acceptor beads were conjugated with a monoclonal antibody recognising a mid-/C-terminal epitope of the peptide. Another monoclonal antibody, specific for the N-terminus, was biotinylated. The three reactants were combined with the analyte and formed a two-sited immuno-complex. Illumination of the complex released singlet oxygen atoms from the donor beads, which were channeled into the acceptor beads and triggered chemiluminescence which was measured in an Envision plate reader. The amount of light was proportional to the concentration of the compound.
Plasma concentration-time profiles were analyzed using Phoenix WinNonLin ver. 6.2, Pharsight Inc., Mountain View, Calif., USA), and the half-life (T1/2) calculated using individual plasma concentration-time profiles from each animal.
A short description of data set [3]: Pharmacokinetic (PK) study in minipig. The conditions noted are these: male, Göttingen, in vivo, iv.
The target of data set [4] is T1, human GLP-1 receptor. In words: GLP-1 receptor binding (SPA, displacement of 125I-GLP-1). Put shortly:
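Tracer [125I]-GLP-1(7-36)NH2 at 0.06 nM final competed on hamster stably transfected cell membranes captured by WGA SPA beads; 120 min, 30 °C, scintillation count.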
On the technique in general: Loss of bound radioactivity is the signal in a displacement assay; it reports binding, not function.

Data set [5] has as its system Landrace Yorkshire Duroc (LYD) pigs. The experiment in a line: Pharmacodynamic (PD) study in pigs, food intake. It counts as in vivo, pig. The conditions noted are these: single s.c. dose 3.0 nmol/kg. The protocol: The purpose of this experiment was to investigate the effect of a couple of Example compounds on food intake in pigs. This was done in a pharmacodynamic (PD) study as described below, in which food intake was measured from 1 to 4 days after administration of a single dose of the GLP-1 derivative, as compared to a vehicle-treated control group.
Female Landrace Yorkshire Duroc (LYD) pigs, approximately 3 months of age, weighing approximately 30-35 kg were used (n=3-4 per group). The animals were housed in a group for approximately 1 week during acclimatisation to the animal facilities. During the experimental period the animals were placed in individual pens at least 2 days before dosing and during the entire experiment for measurement of individual food intake. The animals were fed ad libitum with pig fodder (Svinefoder Danish Top) at all times both during the acclimatisation and the experimental period. Food intake was monitored on line by logging the weight of fodder every 15 minutes. The system used was Mpigwin (Ellegaard Systems, Faaborg, Denmark).
The phosphate buffer serves as vehicle. Animals are dosed with a single subcutaneous dose of the GLP-1 derivative or vehicle (dose volume 0.025 ml/kg) on the morning of day 1, and food intake is measured for 1 day after dosing. On the last day of each study, 1-4 days after dosing, a blood sample for measurement of plasma exposure of the GLP-1 derivative is taken from the heart in anaesthetised animals. The animals are thereafter euthanised with an intra-cardial overdose of pentobarbitone.
Food intake is calculated as mean±SEM food intake in 24 h intervals (0-24 h, 24-48 h, and 48-72 h). In Table 6 below the food intake is indicated as percentage of the food intake of the vehicle group in the same time interval (dosage 3.0 nmol/kg).
Statistical comparisons of the food intake in the 24 h intervals in the vehicle vs. GLP-1 derivative group are done using two-way-ANOVA repeated measures, followed by Bonferroni post-test.

Setting [6] is: In vitro potency (CRE luciferase) EC50 (0% HSA), 0% HSA.
Where [7] appears, read: Receptor binding affinity IC50 (low HSA), 0.001% HSA (low albumin).
Setting [8] is: In vitro potency (CRE luciferase) EC50 (1% HSA), 1% HSA.
Where [9] appears, read: Receptor binding affinity IC50 (high HSA), 2.0% HSA (high albumin).

pEC50, pIC50: −log10 of the molar value.

Consider `CC[C@H](C)[C@H](NC(=O)[C@H](Cc1ccccc1)NC(=O)[C@H](CCC(=O)O)NC(=O)[C@H](CCCCNC(=O)[C@@H](N)CCCCNC(=O)[C@@H](N)CCCCNC(=O)CC[C@H](NC(=O)CCCCCCCCCCCOc1ccc(C(=O)O)cc1)C(=O)O)NC(=O)[C@H](C)NC(=O)[C@H](C)NC(=O)[C@H](CCC(N)=O)NC(=O)CNC(=O)[C@H](CCC(=O)O)NC(=O)[C@H](CC(C)C)NC(=O)[C@H](Cc1ccc(O)cc1)NC(=O)[C@H](CO)NC(=O)[C@H](CO)NC(=O)[C@@H](NC(=O)[C@H](CC(=O)O)NC(=O)[C@H](CO)NC(=O)[C@@H](NC(=O)[C@H](Cc1ccccc1)NC(=O)[C@@H](NC(=O)CNC(=O)[C@H](CCC(=O)O)NC(=O)C(C)(C)NC(=O)[C@@H](N)Cc1c[nH]cn1)[C@@H](C)O)[C@@H](C)O)C(C)C)C(=O)N[C@@H](C)C(=O)N[C@@H](Cc1c[nH]c2ccccc12)C(=O)N[C@@H](CC(C)C)C(=O)N[C@H](C(=O)N[C@@H](CCC(N)=O)C(=O)NCC(=O)N[C@@H](CCCNC(=N)N)C(=O)N[C@@H](CCCCNC(=O)[C@@H](N)CCCCNC(=O)[C@@H](N)CCCCNC(=O)CC[C@H](NC(=O)CCCCCCCCCCCOc1ccc(C(=O)O)cc1)C(=O)O)C(=O)O)C(C)C` [Example 9, N^ε26-[(2S)-2-amino-6-[[(2S)-2-amino-6-[[(4S)-4-carboxy-4-[12-(4-carboxyphenoxy)dodecanoylamino]butanoyl]amino]hexanoyl]amino]hexanoyl], N^ε37-[(2S)-2-amino-6-[[(2S)-2-amino-6-[[(4S)-4-carboxy-4-[12-(4-carboxyphenoxy)dodecanoylamino]butanoyl]amino]hexanoyl]amino]hexanoyl]-[Aib^8,Gln^34,Lys^37]-GLP-1-(7-37)-peptide], for which, in data set [1], the “EC50/pM (ratio 1% HSA/0% HSA)” value stood at 72. In addition, the half-life was 20 h in data set [2] and 72 h in data set [3].
For `CC[C@H](C)[C@H](NC(=O)[C@H](Cc1ccccc1)NC(=O)[C@H](CCC(=O)O)NC(=O)[C@H](CCCCNC(=O)[C@@H](N)CCCCNC(=O)COCCOCCNC(=O)COCCOCCNC(=O)CC[C@H](NC(=O)CCCCCCCCCCOc1ccc(C(=O)O)cc1)C(=O)O)NC(=O)[C@H](C)NC(=O)[C@H](C)NC(=O)[C@H](CCC(N)=O)NC(=O)[C@H](CCC(=O)O)NC(=O)[C@H](CCC(=O)O)NC(=O)[C@H](CC(C)C)NC(=O)[C@H](Cc1ccc(O)cc1)NC(=O)[C@H](CO)NC(=O)[C@H](CO)NC(=O)[C@@H](NC(=O)[C@H](CC(=O)O)NC(=O)[C@H](CO)NC(=O)[C@@H](NC(=O)[C@H](Cc1ccccc1)NC(=O)[C@@H](NC(=O)CNC(=O)[C@H](CCC(=O)O)NC(=O)C(C)(C)NC(=O)[C@@H](N)Cc1c[nH]cn1)[C@@H](C)O)[C@@H](C)O)C(C)C)C(=O)N[C@@H](C)C(=O)N[C@@H](Cc1c[nH]c2ccccc12)C(=O)N[C@@H](CC(C)C)C(=O)N[C@H](C(=O)N[C@@H](CCCNC(=N)N)C(=O)NCC(=O)N[C@@H](CCCNC(=N)N)C(=O)N[C@@H](CCCCNC(=O)[C@@H](N)CCCCNC(=O)COCCOCCNC(=O)COCCOCCNC(=O)CC[C@H](NC(=O)CCCCCCCCCCOc1ccc(C(=O)O)cc1)C(=O)O)C(=O)O)C(C)C` [Example 22], in data set [1] (setting [6]), the pEC50 is 11.26. Also, the “EC50/pM (ratio 1% HSA/0% HSA)” value in data set [1] was 13. Besides, the pIC50 in data set [4] (setting [7]) was 9.59. Moreover, the figures for the half-life in data set [2] and in data set [3] were 15 h and 59 h, respectively.
For `CC[C@H](C)[C@H](NC(=O)[C@H](Cc1ccccc1)NC(=O)[C@H](CCC(=O)O)NC(=O)[C@H](CCCCNC(=O)[C@@H](N)CCCCNC(=O)[C@H](CO)NC(=O)CNC(=O)[C@H](CO)NC(=O)CC[C@H](NC(=O)CCCCCCCCCCCOc1ccc(C(=O)O)cc1)C(=O)O)NC(=O)[C@H](C)NC(=O)[C@H](C)NC(=O)[C@H](CCC(N)=O)NC(=O)CNC(=O)[C@H](CCC(=O)O)NC(=O)[C@H](CC(C)C)NC(=O)[C@H](Cc1ccc(O)cc1)NC(=O)[C@H](CO)NC(=O)[C@H](CO)NC(=O)[C@@H](NC(=O)[C@H](CC(=O)O)NC(=O)[C@H](CO)NC(=O)[C@@H](NC(=O)[C@H](Cc1ccccc1)NC(=O)[C@@H](NC(=O)CNC(=O)[C@H](CCC(=O)O)NC(=O)C(C)(C)NC(=O)[C@@H](N)Cc1c[nH]cn1)[C@@H](C)O)[C@@H](C)O)C(C)C)C(=O)N[C@@H](C)C(=O)N[C@@H](Cc1c[nH]c2ccccc12)C(=O)N[C@@H](CC(C)C)C(=O)N[C@H](C(=O)N[C@@H](CCCNC(=N)N)C(=O)NCC(=O)N[C@@H](CCCNC(=N)N)C(=O)N[C@@H](CCCCNC(=O)[C@@H](N)CCCCNC(=O)[C@H](CO)NC(=O)CNC(=O)[C@H](CO)NC(=O)CC[C@H](NC(=O)CCCCCCCCCCCOc1ccc(C(=O)O)cc1)C(=O)O)C(=O)O)C(C)C` [Example 24], the pEC50 in data set [1] (setting [8]) was 9.90. Moreover, the “EC50/pM (ratio 1% HSA/0% HSA)” value in data set [1] was found to be 37. In data set [4] (setting [9]), this compound showed a pIC50 of 6.87. Also, the “PD in pig, food intake (% of vehicle) for hours 0-24” value in data set [5] (0-24 h) is reported as 73 % of vehicle. Further, the “PD in pig, food intake (% of vehicle) for hours 24-48” value in data set [5] (24-48 h) is 73 % of vehicle. This compound gave a half-life in data set [3] of 123 h.
Turning to `CC[C@H](C)[C@H](NC(=O)[C@H](Cc1ccccc1)NC(=O)[C@H](CCC(=O)O)NC(=O)[C@H](CCCCNC(=O)[C@H](CCCCNC(=O)[C@H](CCCCNC(=O)CC[C@H](NC(=O)CCCCCCCCCCOc1ccc(C(=O)O)cc1)C(=O)O)N(C)C)N(C)C)NC(=O)[C@H](C)NC(=O)[C@H](C)NC(=O)[C@H](CCC(N)=O)NC(=O)CNC(=O)[C@H](CCC(=O)O)NC(=O)[C@H](CC(C)C)NC(=O)[C@H](Cc1ccc(O)cc1)NC(=O)[C@H](CO)NC(=O)[C@H](CO)NC(=O)[C@@H](NC(=O)[C@H](CC(=O)O)NC(=O)[C@H](CO)NC(=O)[C@@H](NC(=O)[C@H](Cc1ccccc1)NC(=O)[C@@H](NC(=O)CNC(=O)[C@H](CCC(=O)O)NC(=O)C(C)(C)NC(=O)CCc1c[nH]cn1)[C@@H](C)O)[C@@H](C)O)C(C)C)C(=O)N[C@@H](C)C(=O)N[C@@H](Cc1c[nH]c2ccccc12)C(=O)N[C@@H](CC(C)C)C(=O)N[C@H](C(=O)N[C@@H](CCCNC(=N)N)C(=O)NCC(=O)N[C@@H](CCCNC(=N)N)C(=O)N[C@@H](CCCCNC(=O)[C@H](CCCCNC(=O)[C@H](CCCCNC(=O)CC[C@H](NC(=O)CCCCCCCCCCOc1ccc(C(=O)O)cc1)C(=O)O)N(C)C)N(C)C)C(=O)O)C(C)C` [Example 29, N^ε26-[(2S)-6-[[(2S)-6-[[(4S)-4-carboxy-4-[11-(4-carboxyphenoxy)undecanoylamino]butanoyl]amino]-2-(dimethylamino)hexanoyl]amino]-2-(dimethylamino)hexanoyl], N^ε37-[(2S)-6-[[(2S)-6-[[(4S)-4-carboxy-4-[11-(4-carboxyphenoxy)undecanoylamino]butanoyl]amino]-2-(dimethylamino)hexanoyl]amino]-2-(dimethylamino)hexanoyl]-[Imp^7,Aib^8,Arg^34,Lys^37]-GLP-1-(7-37)-peptide], the pEC50 was 11.10 in data set [1] (setting [6]) and 9.37 in data set [1] (setting [8]). Also, the results for the pIC50 in data set [4] (setting [9]) and in data set [4] (setting [7]) were 7.25 and 9.26, respectively. Also, the half-life in data set [2] was 19 h; in data set [3], 82 h.
